Data set [1] is described as follows: Ability to bind to FK506 binding protein via its inhibition of peptidyl prolyl cis-trans isomerase activity (PPIase) inherent to FKBP.
In data set [2] the test system is Mus musculus. The data set can be described thus: Ability to prevent transplantation rejection in vivo in mouse skin graft model. It is filed as functional.
Data set [3] in a line: The activity in the LAF assay is best expressed as a ratio of the rapamycin IC50 (1-9 nM) /analogue IC50 (R/A). In kind it is functional.
For data set [4], the species on record is Mus musculus. The data set is described as follows: In vitro ability to inhibit lymphoproliferation (LAF) in vitro using cells from the thymus of normal BALB/c mice. It is filed as functional.
The nature of data set [5]: Half life was determined. To be noted: rat. In kind it is ADME.

The text below walks through data of ChEMBL document CHEMBL1132513, “Manipulation of the C(22)-C(27) region of rapamycin: stability issues and biological implications” (Bioorg Med Chem Lett, 1999).

SMILES strings stand for the structures.

Regarding `CO[C@H]1C[C@@H]2CC[C@@H](C)[C@@](O)(O2)C(=O)C(=O)N2CCCC[C@H]2C(=O)O[C@H]([C@H](C)C[C@H]2CC[C@H](O)[C@@H](OC)C2)CC(O)[C@H](C)/C=C(\C)[C@@H](O)[C@@H](OC)C(=O)[C@H](C)C[C@H](C)/C=C/C=C/C=C/1C` (stereo not given in full), the IC50 (commonly the concentration that inhibits the measured activity by half) in data set [1] stood at 0.022 µM; in data set [4] it was 0.0037 µM. Further, in data set [2], the “Skin Graft Survival” value is given as 8.5. For the same compound, in data set [3], the Ratio came to 1.3. In data set [5], the half-life (usually the time in which the quantity being followed falls by half) was 17.5 h.

Regarding `CO[C@H]1C[C@@H]2CC[C@@H](C)[C@@](O)(O2)C(=O)C(=O)N2CCCCC2(C)C(=O)O[C@H]([C@H](C)C[C@H]2CC[C@H](O)[C@@H](OC)C2)CC(=O)[C@H](C)/C=C(\C)[C@@H](O)[C@@H](OC)C(=O)[C@H](C)C[C@H](C)/C=C/C=C/C=C/1C` (stereo not given in full), the results for the IC50 in data set [1] and in data set [4] were 0.095 µM and 0.023 µM, respectively. This compound yielded a Survival in data set [2] of 9.33. Also, the Ratio in data set [3] came to 0.42. Moreover, in data set [5], the half-life is 38.4 h.

For `CO[C@H]1C[C@@H]2CC[C@@H](C)[C@@](O)(O2)C(=O)C(=O)N2CCCC[C@H]2C(=O)O[C@H]([C@H](C)C[C@@H]2CC[C@@H](O)[C@H](OC)C2)CC(=O)[C@H](C)/C=C(\C)[C@@H](O)[C@@H](OC)C(=O)[C@H](C)C[C@H](C)/C=C/C=C/C=C/1C` [SIROLIMUS], the half-inhibitory concentration (IC50) in data set [1] was 0.015 µM; in data set [4] it was 0.003 µM. Moreover, in data set [2], the “Skin Graft Survival” value came out at 12. This compound also showed a half-life in data set [5] of 13 h.

Consider `CO[C@H]1C[C@@H]2CC[C@@H](C)[C@@](O)(O2)C(=O)C(=O)N2CCCCC2(C)C(=O)O[C@H]([C@H](C)C[C@H]2CC[C@H](O)[C@@H](OC)C2)CC(O)[C@H](C)/C=C(\C)[C@@H](O)[C@@H](OC)C(=O)[C@H](C)C[C@H](C)/C=C/C=C/C=C/1C` (stereo not given in full), for which the figures for the IC50 in data set [1] and in data set [4] were 0.15 µM and 0.0099 µM, respectively. Further, the Survival in data set [2] came to 7. Also, the Ratio in data set [3] stood at 0.23. In addition, the half-life in data set [5] is 14.6 h.

For `CCC12CCCCN1C(=O)C(=O)[C@]1(O)O[C@@H](CC[C@H]1C)C[C@H](OC)/C(C)=C/C=C/C=C/[C@@H](C)C[C@@H](C)C(=O)[C@H](OC)[C@H](O)/C(C)=C/[C@@H](C)C(=O)C[C@@H]([C@H](C)C[C@H]1CC[C@H](O)[C@H](OC)C1)OC2=O` (stereo not given in full), the IC50 worked out at 0.95 µM in data set [1] and 0.14 µM in data set [4]. In addition, the Ratio in data set [3] was 0.07.

Take `CO[C@H]1C[C@@H]2CC[C@@H](C)[C@@](O)(O2)C(=O)C(=O)N2CCCC[C@H]2C(=O)O[C@H](C[C@H](O)[C@H](C)C[C@@H]2CC[C@@H](O)[C@H](OC)C2)[C@H](C)/C=C(\C)[C@@H](O)[C@@H](OC)C(=O)[C@H](C)C[C@H](C)/C=C/C=C/C=C/1C`: the IC50 in data set [1] was determined as 0.31 µM; in data set [4], 0.016 µM. The compound further had a Survival in data set [2] of 7. Moreover, the Ratio in data set [3] was 0.42. The same compound had a half-life in data set [5] of 21.6 h.

For `CO[C@H]1C[C@@H]2CC[C@@H](C)[C@@](O)(O2)C(=O)C(=O)N2CCCC[C@H]2C(=O)O[C@H]([C@H](C)C[C@H]2CC[C@H](O)[C@@H](OC)C2)C[C@@H](OC(C)=O)[C@H](C)/C=C(\C)[C@@H](O)[C@@H](OC)C(=O)[C@H](C)C[C@H](C)/C=C/C=C/C=C/1C`, the Ratio in data set [3] amounted to 0.08. For the same compound, the IC50 in data set [4] was found to be 0.099 µM. Besides, in data set [5], the half-life was 34 h.
